Experimental data from patent US20230125482A1, “PROTEIN KINASE C MODULATORS” (Young Therapeutics, LLC, priority 2020, published 2023).
Where a SMILES comes first, the peptide text is derived from it. The star is where a group is joined. Myristoyl = CCCCCCCCCCCCCC(=O)*

Experiments:
[1] = Solubility of peptide; assay type: physicochemical
[2] = system: isolated rat hearts; assay: Myocardial ischemia/reperfusion (I/R) injury in isolated rat hearts (Langendorff, ex vivo); details: for Final Coronary Flow / Final Heart Rate / Final LVDP / Final LVEDP / Final LVESP / Final dP/dtmax / Final dP/dtmin: 50 min post-reperfusion; for Infarct Size: I(30 min)/R(50 min), infarct tissue weight/total tissue weight; for Initial Coronary Flow / Initial Heart Rate / Initial LVDP / Initial LVEDP / Initial LVESP / Initial dP/dtmax / Initial dP/dtmin: baseline before ischemia
Method: Rat hearts were isolated from anesthetized male Sprague Dawley rats (275-325 g), placed in ice-cold Krebs' buffer, and placed onto a Langendorff heart apparatus and retro perfused with Krebs' buffer at a constant pressure of 80 mmHg (FIG. 1). A pressure transducer measures heart rate, left ventricular end-systolic pressure, end-diastolic pressure, dP/dt max, and dP/dt min. Coronary flow is measured via a flow probe connected to the perfusion tubing. Cardiac function was recorded throughout the experimental protocol using a pressure transducer inserted into the left ventricle (15 min baseline; global I(30 min)/R(50 min)). Selected peptides of TABLE 1 or vehicle (control [0.05 to 0.2% Dimethylsulfoxide) were given during the first 5 min of reperfusion. All peptide inhibitors or activators were dissolved in 28% DMSO and the final concentration of DMSO with peptides or without peptides (control I/R hearts) delivered to all hearts was 0.06%. Statistical analysis was performed using ANOVA and Bonferroni-Dunn post-hoc test.
At the end of the experimental protocol, hearts were removed from the Langendorff apparatus, and frozen for 30 min at −20° C. Hearts were sectioned (2 mm) from base to apex and placed in 1% TTC for ˜10 min at 37° C. Viable tissue stained red and infarcted tissue was unstained (pale). Total tissue sections were weighed and infarcted tissue was separated from viable tissue and weighed to determine infarct size (i.e. infarct tissue weight/total tissue weight).

CCCCCCCCCCCCCC(=O)N[C@@H](Cc1ccc(O)cc1)C(=O)NCC(=O)N[C@@H](CCCNC(=N)N)C(=O)N[C@@H](CCCCN)C(=O)N[C@@H](CCCCN)C(=O)N[C@@H](CCCNC(=N)N)C(=O)N[C@@H](CCCNC(=N)N)C(=O)N[C@@H](CCC(N)=O)C(=O)N[C@@H](CCCNC(=N)N)C(=O)N[C@@H](CCCNC(=N)N)C(=O)N[C@@H](CCCNC(=N)N)C(=O)N[C@@H](CS)C(=O)N[C@@H](CS)C(=O)N[C@@H](CCC(=O)O)C(=O)N[C@@H](C)C(=O)N[C@H](C(=O)N[C@@H](CO)C(=O)N[C@@H](CC(C)C)C(=O)N[C@@H](CCCCN)C(=O)N1CCC[C@H]1C(=O)N[C@H](C(=O)O)[C@@H](C)O)C(C)C [Myr + TAT + PKCε-] (Myristoyl-YGRKKRRQRRRCCEAVSLKPT-OH; C-terminus assumed)
solubility [1]: ≤ 100 mM
Final Coronary Flow ([2]; 100 pM): 10 ± 1 mL/min
Final Heart Rate ([2]; 100 pM): 252 ± 8 BPM
Final LVDP ([2]; 100 pM): 47 ± 11 mmHg
Final LVEDP ([2]; 100 pM): 47 ± 10 mmHg
Final LVESP ([2]; 100 pM): 94 ± 14 mmHg
Final dP/dtmax ([2]; 100 pM): 1021 ± 246 mmHg/s
Final dP/dtmin ([2]; 100 pM): −688 ± 142 mmHg/s
Infarct Size ([2]; 100 pM): 18 ± 1%
Initial Coronary Flow ([2]; 100 pM): 18 ± 2 mL/min
Initial Heart Rate ([2]; 100 pM): 285 ± 6 BPM
Initial LVDP ([2]; 100 pM): 89 ± 3 mmHg
Initial LVEDP ([2]; 100 pM): 10 ± 0.4 mmHg
Initial LVESP ([2]; 100 pM): 100 ± 3 mmHg
Initial dP/dtmax ([2]; 100 pM): 2457 ± 37 mmHg/s
Initial dP/dtmin ([2]; 100 pM): −1726 ± 49 mmHg/s
Final Coronary Flow ([2]; 1 nM): 10 ± 1 mL/min
Final Heart Rate ([2]; 1 nM): 266 ± 6 BPM
Final LVDP ([2]; 1 nM): 49 ± 8 mmHg
Final LVEDP ([2]; 1 nM): 52 ± 9 mmHg
Final LVESP ([2]; 1 nM): 101 ± 9 mmHg
Final dP/dtmax ([2]; 1 nM): 1147 ± 156 mmHg/s
Final dP/dtmin ([2]; 1 nM): −733 ± 68 mmHg/s
Infarct Size ([2]; 1 nM): 10 ± 2 %
Initial Coronary Flow ([2]; 1 nM): 18 ± 1 mL/min
Initial Heart Rate ([2]; 1 nM): 293 ± 13 BPM
Initial LVDP ([2]; 1 nM): 91 ± 4 mmHg
Initial LVEDP ([2]; 1 nM): 10 ± 1 mmHg
Initial LVESP ([2]; 1 nM): 101 ± 5 mmHg
Initial dP/dtmax ([2]; 1 nM): 2440 ± 72 mmHg/s
Initial dP/dtmin ([2]; 1 nM): −1674 ± 106 mmHg/s
Final Coronary Flow ([2]; 30 nM): 9 ± 1 mL/min
Final Heart Rate ([2]; 30 nM): 261 ± 11 BPM
Final LVDP ([2]; 30 nM): 48 ± 10 mmHg
Final LVEDP ([2]; 30 nM): 50 ± 15 mmHg
Final LVESP ([2]; 30 nM): 108 ± 3 mmHg
Final dP/dtmax ([2]; 30 nM): 1059 ± 336 mmHg/s
Final dP/dtmin ([2]; 30 nM): −733 ± 99 mmHg/s
Infarct Size ([2]; 30 nM): 14 ± 2%
Initial Coronary Flow ([2]; 30 nM): 16 ± 1 mL/min
Initial Heart Rate ([2]; 30 nM): 271 ± 7 BPM
Initial LVDP ([2]; 30 nM): 88 ± 2 mmHg
Initial LVEDP ([2]; 30 nM): 11 ± 1 mmHg
Initial LVESP ([2]; 30 nM): 99 ± 2 mmHg
Initial dP/dtmax ([2]; 30 nM): 2344 ± 22 mmHg/s
Initial dP/dtmin ([2]; 30 nM): −1588 ± 18 mmHg/s
restoration of post-reperfused cardiac function compared to control I/R hearts ([2]; 100 nM given at the beginning of reperfusion for 5 minutes, 25 to 50 min): significantly restored post-reperfused cardiac function
Final Coronary Flow ([2]; 100 nM): 11 ± 2 mL/min
Final Heart Rate ([2]; 100 nM): 254 ± 12 BPM
Final LVDP ([2]; 100 nM): 66 ± 6 mmHg
Final LVEDP ([2]; 100 nM): 48 ± 13 mmHg
Final LVESP ([2]; 100 nM): 114 ± 11 mmHg
Final dP/dtmin ([2]; 100 nM): −981 ± 135 mmHg/s
Infarct Size ([2]; 100 nM): 8 ± 2 %
Initial Coronary Flow ([2]; 100 nM): 20 ± 2 mL/min
Initial Heart Rate ([2]; 100 nM): 301 ± 10 BPM
Initial LVDP ([2]; 100 nM): 89 ± 4 mmHg
Initial LVEDP ([2]; 100 nM): 9 ± 1 mmHg
Initial LVESP ([2]; 100 nM): 98 ± 3 mmHg
Initial dP/dtmax ([2]; 100 nM): 2528 ± 133 mmHg/s
Initial dP/dtmin ([2]; 100 nM): −1807 ± 125 mmHg/s
Final Coronary Flow ([2]; 1 μM): 10 ± 3 mL/min
Final Heart Rate ([2]; 1 μM): 296 ± 86 BPM
Final LVDP ([2]; 1 μM): 40 ± 15 mmHg
Final LVEDP ([2]; 1 μM): 60 ± 12 mmHg
Final LVESP ([2]; 1 μM): 101 ± 6 mmHg
Final dP/dtmax ([2]; 1 μM): 794 ± 220 mmHg/s
Final dP/dtmin ([2]; 1 μM): −616 ± 122 mmHg/s
Infarct Size ([2]; 1 μM): 5 ± 2 %
Initial Coronary Flow ([2]; 1 μM): 21 ± 1 mL/min
Initial Heart Rate ([2]; 1 μM): 274 ± 15 BPM
Initial LVDP ([2]; 1 μM): 94 ± 5 mmHg
Initial LVEDP ([2]; 1 μM): 10 ± 2 mmHg
Initial LVESP ([2]; 1 μM): 104 ± 6 mmHg
Initial dP/dtmax ([2]; 1 μM): 2493 ± 128 mmHg/s
Initial dP/dtmin ([2]; 1 μM): −1786 ± 97 mmHg/s
cardio depressive effect on post-reperfused cardiac function compared to all other groups ([2]; 10 μM): most cardio depressive effect
reduction of infarct size compared to control I/R hearts ([2]; 10 μM): reduced infarct size
stunning concentration relative to the concentration needed to produce a 50% reduction in infarct size ([2]; 10 μM): 10,000 times
stunning of the heart during reperfusion ([2]; 10 μM): caused stunning
effect on reducing infarct size ([2]; 10 μM and 1 μM): most robust effect on reducing infarct size
Final Coronary Flow ([2]; 10 μM): 0 mL/min
Final Heart Rate ([2]; 10 μM): 811 ± 79 BPM
Final LVDP ([2]; 10 μM): 1 ± 0.2 mmHg
Final LVEDP ([2]; 10 μM): 68 ± 17 mmHg
Final LVESP ([2]; 10 μM): 69 ± 17 mmHg
Final dP/dtmax ([2]; 10 μM): 54 ± 14 mmHg/s
Final dP/dtmin ([2]; 10 μM): −56 ± 14 mmHg/s
Infarct Size ([2]; 10 μM): 5 ± 2 %
Initial Coronary Flow ([2]; 10 μM): 18 ± 2 mL/min
Initial Heart Rate ([2]; 10 μM): 285 ± 24 BPM
Initial LVDP ([2]; 10 μM): 92 ± 3 mmHg
Initial LVEDP ([2]; 10 μM): 8 ± 2 mmHg
Initial LVESP ([2]; 10 μM): 101 ± 4 mmHg
Initial dP/dtmax ([2]; 10 μM): 2540 ± 158 mmHg/s
Initial dP/dtmin ([2]; 10 μM): −1772 ± 141 mmHg/s
minimum effective concentration, tissue-salvaging effects (infarct size) ([2]; ex vivo rat I/R hearts): 1 nM
decrease in minimum effective concentration (increase in potency to reduce infarct size) as compared to Myr+PKCε− ([2]; infarct size, FIG. 3): 10,000 ×
